Here are results for four compounds from patent US20230043948A1, “METHOD AND KIT FOR CELL GROWTH” (PRECISION CANCER TECHNOLOGIES INC ., priority 2019, published 2023).

Structures are written as SMILES. Entries after “also recorded” stand apart in the source; their conditions may differ. Read-outs that look alike come from different tables or passages of the source.

Assay [1] has as its system lung cancer cells overexpressing the c-Met receptor (PDX, LXFA-1647). The assay can be described thus: ex vivo drug testing of lung cancer cells overexpressing c-Met in a 3D hydrogel array / Matrigel. In kind it is cell-based, human. The text has this:
A PEG was used as a hydrogel precursor molecule for making a non self-degradable hydrogel. As a crosslinking agent, peptides containing at least two, preferably two cysteine moieties were used which varied in their amino acid sequence, in particular with respect to the presence or absence of a RGD adhesion motif and with respect to the presence or absence of a MMP degradation sequence. A further variation that was made to some hydrogels was the attachment of a bioactive ligand comprising a RGD adhesion motif or/and a ligand selected from the group consisting of natural laminins, recombinant laminin isoforms, and biofunctional fragments thereof. Examples of suitable recombinant laminin isoforms are laminin-111, laminin-211, laminin-332, laminin-411, laminin-511, or laminin-521. An array of hydrogels varying in the above preselected features was established, by the method described above.
The mechanical properties of the hydrogels were also varied (soft (50-1000 Pa), medium (1000-2000 Pa) or hard (2000-3000 Pa) gels).
For comparison, tests were also conducted in the undefined natural-derived matrix Matrigel®.
The respective drug was added to the culture media after 1 to 8 days of culture (1 to 8 days post cell encapsulation). The drug response was measured after 5 to 10 days post-drug addition. As a preferred culture medium, a medium was preselected that is characterized by the presence of FBS (serum) or Wnt agonists such as R-spondin. According to this example, a culture medium was used that was adapted from the medium described in Sachs et al. (The EMBO Journal e 100300|2019). The preferred culture medium comprised AdDMEM/F12 medium supplemented with glutamine, Noggin, EGF, fibroblast growth factor 7 and 10 [FGF7 and FGF10], HGF, R-spondin-conditioned medium, Primocin, penicillin/streptomycin, N-acetyl-L-cysteine, Nicotinamide, A83-01, SB202190 (p38-inhibitor), Y-27632 (rock inhibitor), B27 supplement and HEPES. Target expression (c-Met and Phospho c-Met) was detected by Western-blot in corresponding growth conditions.

Assay [2] deals with lung cancer cells overexpressing the EGFR receptor (PDX). The assay can be described thus: ex vivo drug testing of lung cancer cells overexpressing EGFR in 3D hydrogel. In kind it is cell-based, human.
For assay [3], the system named is non-small cell lung cancer (NSCLC) model LXFA-1647. The assay can be described thus: in vivo treatment of patient-derived xenograft (PDX) NSCLC model. The following applies: PDX NSCLC model LXFA-1647. On the set-up: species or system human. Background: In xenograft studies the graft and the host belong to different species.
Setting [4] is: Matrigel as matrix (comparative example 1), FIG. 1c.
[5] abbreviates: conditions of example 1a: soft non self-degradable PEG hydrogel without any RGD motif (responder conditions), FIG. 1b.
The mark [6] stands for this setting: responder conditions of example 1a (hydrogel without any RGD motif), FIG. 1e.

Take `CC(=O)O[C@@]12CO[C@@H]1C[C@H](O)[C@@]1(C)C(=O)[C@H](O)C3=C(C)[C@@H](OC(=O)[C@H](O)[C@@H](NC(=O)OC(C)(C)C)c4ccccc4)C[C@@](O)([C@@H](OC(=O)c4ccccc4)[C@H]21)C3(C)C` [Docetaxel]: the “drug response (effect of treatment)” value in assay [1] (setting [4]) was “an effect”; in assay [1] (setting [5]), “clearly effective”.
As to `C#Cc1cccc(Nc2ncnc3cc(OCCOC)c(OCCOC)cc23)c1` [Erlotinib], the “drug response (effect of treatment)” value in assay [2] is “clear effect”.
Take `OCCn1cc(-c2cnc3nnn(Cc4ccc5ncccc5c4)c3n2)cn1` [PF-04217903]: the “drug response (effect of treatment)” value in assay [2] (setting [6]) is reported as “no effect”; in assay [1] (setting [4]), “did not respond; also recorded: No effect”; in assay [1] (setting [5]) it was “clearly effective”; in assay [1] (hydrogel with 1 mM bioactive ligand comprising a RGD motif attached (non-responder conditions, example 1b)), “resistant”. Further, the “tumor growth in vivo” value in assay [3] is reported as “induces tumor growth regression”.
Turning to `CC(=O)O[C@H]1C(=O)[C@@]2(C)[C@H]([C@H](OC(=O)c3ccccc3)[C@]3(O)C[C@H](OC(=O)[C@H](O)[C@@H](NC(=O)c4ccccc4)c4ccccc4)C(C)=C1C3(C)C)[C@]1(OC(C)=O)CO[C@@H]1C[C@@H]2O` [Paclitaxel], the “drug response (effect of treatment)” value in assay [2] (setting [6]) is listed as “clear effect”.
